Measurements published in patent US8969294B2 (Istituto di Recerche di Biologia Molecolare P. Angeletti …, priority 2008, dated 2015).
Like-named read-outs stand apart in the source and are kept apart here. Numbered stars: 1 amine (or outer) side, 2 acyl side, 3 side chain; on linkers, the order of the positions; unused ones are H or OH. Square brackets hold non-standard residues; d marks the D form. Side chains are listed from the residue outwards. Peptide text beside a SMILES is read from it. * marks the point of attachment. γGlu = O=C(O)[C@H](CCC(=O)[*:2])N[*:1]; Palmitoyl = CCCCCCCCCCCCCCCC(=O)*; Aib = CC(C)(N)C(=O)O

Biological target: glucagon receptor (Homo sapiens, UniProt P47871)
Experiment: Functional assay, cAMP synthesis: luciferase reporter in HEK293 cells co-transfected with glucagon receptor
[1] = EC50 at Glucagon Receptor, Table 31
[2] = EC50 at the Glucagon receptor, Table 21

Sequence of glucagon receptor (P47871 26-477): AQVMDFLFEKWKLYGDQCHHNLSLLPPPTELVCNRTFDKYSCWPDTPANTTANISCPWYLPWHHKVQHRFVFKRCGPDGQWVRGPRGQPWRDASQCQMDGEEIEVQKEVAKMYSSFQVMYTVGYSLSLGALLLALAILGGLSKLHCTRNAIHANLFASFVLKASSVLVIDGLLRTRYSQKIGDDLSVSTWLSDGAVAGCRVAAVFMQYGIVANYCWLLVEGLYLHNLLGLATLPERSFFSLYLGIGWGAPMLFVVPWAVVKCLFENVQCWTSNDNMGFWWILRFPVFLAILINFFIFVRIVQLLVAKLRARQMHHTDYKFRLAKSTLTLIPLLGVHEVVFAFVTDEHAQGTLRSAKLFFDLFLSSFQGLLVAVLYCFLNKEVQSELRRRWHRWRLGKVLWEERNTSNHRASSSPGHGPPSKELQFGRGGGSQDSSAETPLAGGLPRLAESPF

| EC50 [1] [nM] | EC50 [2] [nM] | further results | Compound |
| --- | --- | --- | --- |
| 0.003 | – | – | CCCCCCCCCCCCCCCC(=O)N[C@@H](CCC(=O)N[C@@H](CCC(=O)NCCCC[C@H](NC(=O)[C@H](CC(=O)O)NC(=O)[C@H](CO)NC(=O)[C@@H](NC(=O)[C@H](Cc1ccccc1)NC(=O)[C@@H](NC(=O)CNC(=O)[C@H](CCC(N)=O)NC(=O)C(C)(C)NC(=O)[C@@H](N)Cc1c[nH]cn1)[C@@H](C)O)[C@@H](C)O)C(=O)N[C@@H](CO)C(=O)N[C@@H](CCCCN)C(=O)N[C@@H](Cc1ccc(O)cc1)C(=O)N[C@@H](CC(C)C)C(=O)N[C@@H](CC(=O)O)C(=O)NC(C)(C)C(=O)N[C@@H](CCCNC(=N)N)C(=O)N[C@@H](C)C(=O)N[C@@H](C)C(=O)N[C@@H](CCC(N)=O)C(=O)N[C@@H](CC(=O)O)C(=O)N[C@@H](Cc1ccccc1)C(=O)N[C@H](C(=O)N[C@@H](CCC(N)=O)C(=O)N[C@@H](Cc1c[nH]c2ccccc12)C(=O)N[C@@H](CC(C)C)C(=O)N[C@@H](CCSC)C(=O)N[C@@H](CC(=O)O)C(=O)N[C@H](C(N)=O)[C@@H](C)O)C(C)C)C(=O)O)C(=O)O [compound 655] (H-H[Aib]QGTFTSDK([γGlu-γGlu-Palmitoyl])SKYLD[Aib]RAAQDFVQWLMDT-NH2; N-terminus assumed) |
| – | – | EC50 (EC50, Glucagon Receptor, Table 13): 0.4 nM; EC50 (EC50 at Glucagon Receptor, Table 17): 0.236 nM | CCCCCCCCCCCCCCCC(=O)NCCCC[C@H](NC(=O)[C@H](CC(=O)O)NC(=O)[C@H](CO)NC(=O)[C@@H](NC(=O)[C@H](Cc1ccccc1)NC(=O)[C@@H](NC(=O)CNC(=O)[C@H](CCC(N)=O)NC(=O)[C@H](CO)NC(=O)[C@@H](N)Cc1c[nH]cn1)[C@@H](C)O)[C@@H](C)O)C(=O)N[C@@H](CO)C(=O)N[C@@H](CCCCN)C(=O)N[C@@H](Cc1ccc(O)cc1)C(=O)N[C@@H](CC(C)C)C(=O)N[C@@H](CC(=O)O)C(=O)N[C@@H](CCC(=O)O)C(=O)N[C@@H](CCCNC(=N)N)C(=O)N[C@@H](CCCNC(=N)N)C(=O)N[C@@H](C)C(=O)N[C@@H](CCCCN)C(=O)N[C@@H](CC(=O)O)C(=O)N[C@@H](Cc1ccccc1)C(=O)N[C@H](C(=O)N[C@@H](CCC(N)=O)C(=O)N[C@@H](Cc1c[nH]c2ccccc12)C(=O)N[C@@H](CC(C)C)C(=O)N[C@@H](CCSC)C(=O)N[C@@H](CC(N)=O)C(=O)N[C@H](C(N)=O)[C@@H](C)O)C(C)C [E16 K20-glucagon-NH2 with K^10—C16] |
| – | 0.02 | EC50 (EC50 at Glucagon Receptor (20% human plasma), Table 28, 20% human plasma): 0.023 nM; EC50 (EC50 at Glucagon Receptor, Table 28): 0.052 nM | CCCCCCCCCCCCCCCC(=O)NCCCC[C@H](NC(=O)[C@H](CC(=O)O)NC(=O)[C@H](CO)NC(=O)[C@@H](NC(=O)[C@H](Cc1ccccc1)NC(=O)[C@@H](NC(=O)CNC(=O)[C@H](CCC(N)=O)NC(=O)C(C)(C)NC(=O)[C@@H](N)Cc1c[nH]cn1)[C@@H](C)O)[C@@H](C)O)C(=O)N[C@@H](CO)C(=O)N[C@@H](CCCCN)C(=O)N[C@@H](Cc1ccc(O)cc1)C(=O)N[C@@H](CC(C)C)C(=O)N[C@@H](CC(=O)O)C(=O)NC(C)(C)C(=O)N[C@@H](CCCNC(=N)N)C(=O)N[C@@H](CCCNC(=N)N)C(=O)N[C@@H](C)C(=O)N[C@@H](CCC(N)=O)C(=O)N[C@@H](CC(=O)O)C(=O)N[C@@H](Cc1ccccc1)C(=O)N[C@H](C(=O)N[C@@H](CCC(N)=O)C(=O)N[C@@H](Cc1c[nH]c2ccccc12)C(=O)N[C@@H](CC(C)C)C(=O)N[C@@H](CCSC)C(=O)N[C@@H](CC(N)=O)C(=O)N[C@H](C(N)=O)[C@@H](C)O)C(C)C [AIB2, AIB16, K10(C16) Gluc Amide] |
| – | – | EC50 (read-out: EC50 at Glucagon Receptor, Table 22): 0.653 ± 0.285 nM | CSCC[C@H](NC(=O)[C@H](CC(C)C)NC(=O)[C@H](Cc1c[nH]c2ccccc12)NC(=O)[C@H](CCC(N)=O)NC(=O)[C@@H](NC(=O)[C@H](Cc1ccccc1)NC(=O)[C@H](CC(=O)O)NC(=O)[C@H](CCC(N)=O)NC(=O)[C@H](C)NC(=O)[C@H](CCCNC(=N)N)NC(=O)[C@H](CCCNC(=N)N)NC(=O)C(C)(C)NC(=O)[C@H](CC(=O)O)NC(=O)[C@H](CC(C)C)NC(=O)[C@H](Cc1ccc(O)cc1)NC(=O)[C@H](CCCCN)NC(=O)[C@H](CO)NC(=O)[C@H](Cc1ccc(O)cc1)NC(=O)[C@H](CC(=O)O)NC(=O)[C@H](CO)NC(=O)[C@@H](NC(=O)[C@H](Cc1ccccc1)NC(=O)[C@@H](NC(=O)CNC(=O)[C@H](CCC(N)=O)NC(=O)C(C)(C)NC(=O)[C@@H](N)Cc1c[nH]cn1)[C@@H](C)O)[C@@H](C)O)C(C)C)C(=O)N[C@@H](CC(N)=O)C(=O)N[C@H](C(N)=O)[C@@H](C)O [Peptide 26] (H-H[Aib]QGTFTSDYSKYLD[Aib]RRAQDFVQWLMNT-NH2; N-terminus assumed) |
| 0.025 | – | – | CCCCCCCCCCCCCCCC(=O)N[C@@H](CCC(=O)NCCCC[C@H](NC(=O)[C@H](CC(=O)O)NC(=O)[C@H](CO)NC(=O)[C@@H](NC(=O)[C@H](Cc1ccccc1)NC(=O)[C@@H](NC(=O)CNC(=O)[C@H](CCC(N)=O)NC(=O)C(C)(C)NC(=O)[C@@H](N)Cc1c[nH]cn1)[C@@H](C)O)[C@@H](C)O)C(=O)N[C@@H](CO)C(=O)N[C@@H](CCCCN)C(=O)N[C@@H](Cc1ccc(O)cc1)C(=O)N[C@@H](CC(C)C)C(=O)N[C@@H](CC(=O)O)C(=O)N[C@@H](CCC(=O)O)C(=O)N[C@@H](CCC(N)=O)C(=O)N[C@@H](C)C(=O)N[C@@H](C)C(=O)N[C@@H](CCCCN)C(=O)N[C@@H](CCC(=O)O)C(=O)N[C@@H](Cc1ccccc1)C(=O)N[C@H](C(=O)N[C@@H](C)C(=O)N[C@@H](Cc1c[nH]c2ccccc12)C(=O)N[C@@H](CC(C)C)C(=O)N[C@@H](CCSC)C(=O)N[C@@H](CC(N)=O)C(=O)N[C@H](C(N)=O)[C@@H](C)O)[C@@H](C)CC)C(=O)O [compound 645] |
| 0.006 | – | – | CCCCCCCCCCCCCCCC(=O)N[C@@H](CCC(=O)NCCCC[C@H](NC(=O)[C@H](CC(=O)O)NC(=O)[C@H](CO)NC(=O)[C@@H](NC(=O)[C@H](Cc1ccccc1)NC(=O)[C@@H](NC(=O)CNC(=O)[C@H](CCC(N)=O)NC(=O)C(C)(C)NC(=O)[C@@H](N)Cc1cnc[nH]1)[C@@H](C)O)[C@@H](C)O)C(=O)N[C@@H](CO)C(=O)N[C@@H](CCCCN)C(=O)N[C@@H](Cc1ccc(O)cc1)C(=O)N[C@@H](CC(C)C)C(=O)N[C@@H](CC(=O)O)C(=O)NC(C)(C)C(=O)N[C@@H](CCCNC(=N)N)C(=O)N[C@@H](C)C(=O)N[C@@H](C)C(=O)N[C@@H](CCC(N)=O)C(=O)N[C@@H](CC(=O)O)C(=O)N[C@@H](Cc1ccccc1)C(=O)N[C@H](C(=O)N[C@@H](CCC(N)=O)C(=O)N[C@@H](Cc1c[nH]c2ccccc12)C(=O)N[C@@H](CC(C)C)C(=O)N[C@@H](CCSC)C(=O)N[C@@H](CC(=O)O)C(=O)N[C@H](C(N)=O)[C@@H](C)O)C(C)C)C(=O)O [compound 656] |
| – | 0.044 | – | CCCCCCCCCCCCCC(=O)NCCCC[C@H](NC(=O)[C@H](CC(=O)O)NC(=O)[C@H](CO)NC(=O)[C@@H](NC(=O)[C@H](Cc1ccccc1)NC(=O)[C@@H](NC(=O)CNC(=O)[C@H](CCC(N)=O)NC(=O)C(C)(C)NC(=O)[C@@H](N)Cc1c[nH]cn1)[C@@H](C)O)[C@@H](C)O)C(=O)N[C@@H](CO)C(=O)N[C@@H](CCCCN)C(=O)N[C@@H](Cc1ccc(O)cc1)C(=O)N[C@@H](CC(C)C)C(=O)N[C@@H](CC(=O)O)C(=O)NC(C)(C)C(=O)N[C@@H](CCCNC(=N)N)C(=O)N[C@@H](CCCNC(=N)N)C(=O)N[C@@H](C)C(=O)N[C@@H](CCC(N)=O)C(=O)N[C@@H](CC(=O)O)C(=O)N[C@@H](Cc1ccccc1)C(=O)N[C@H](C(=O)N[C@@H](CCC(N)=O)C(=O)N[C@@H](Cc1c[nH]c2ccccc12)C(=O)N[C@@H](CC(C)C)C(=O)N[C@@H](CCSC)C(=O)N[C@@H](CC(N)=O)C(=O)N[C@H](C(N)=O)[C@@H](C)O)C(C)C [AIB2, AIB16, K10(C14) Gluc Amide] |
| – | – | EC50 (Glucagon Receptor EC50, Table 20): 0.25 nM | CCCCCCCCCCCCCCCC(=O)N[C@@H](Cc1c[nH]c2ccccc12)C(=O)NCCCC[C@H](NC(=O)[C@H](CC(=O)O)NC(=O)[C@H](CO)NC(=O)[C@@H](NC(=O)[C@H](Cc1ccccc1)NC(=O)[C@@H](NC(=O)CNC(=O)[C@H](CCC(N)=O)NC(=O)C(C)(C)NC(=O)[C@@H](N)Cc1c[nH]cn1)[C@@H](C)O)[C@@H](C)O)C(=O)N[C@@H](CO)C(=O)N[C@@H](CCCCN)C(=O)N[C@@H](Cc1ccc(O)cc1)C(=O)N[C@@H](CC(C)C)C(=O)N[C@@H](CC(=O)O)C(=O)NC(C)(C)C(=O)N[C@@H](CCCNC(=N)N)C(=O)N[C@@H](CCCNC(=N)N)C(=O)N[C@@H](C)C(=O)N[C@@H](CCC(N)=O)C(=O)N[C@@H](CC(=O)O)C(=O)N[C@@H](Cc1ccccc1)C(=O)N[C@H](C(=O)N[C@@H](CS)C(=O)N[C@@H](Cc1c[nH]c2ccccc12)C(=O)N[C@@H](CC(C)C)C(=O)N[C@@H](CCSC)C(=O)N[C@@H](CC(N)=O)C(=O)N[C@H](C(N)=O)[C@@H](C)O)C(C)C |
| – | 0.016 | – | CCCCCCCCCCCCCCCCCC(=O)NCCCC[C@H](NC(=O)[C@H](CC(=O)O)NC(=O)[C@H](CO)NC(=O)[C@@H](NC(=O)[C@H](Cc1ccccc1)NC(=O)[C@@H](NC(=O)CNC(=O)[C@H](CCC(N)=O)NC(=O)C(C)(C)NC(=O)[C@@H](N)Cc1c[nH]cn1)[C@@H](C)O)[C@@H](C)O)C(=O)N[C@@H](CO)C(=O)N[C@@H](CCCCN)C(=O)N[C@@H](Cc1ccc(O)cc1)C(=O)N[C@@H](CC(C)C)C(=O)N[C@@H](CC(=O)O)C(=O)NC(C)(C)C(=O)N[C@@H](CCCNC(=N)N)C(=O)N[C@@H](CCCNC(=N)N)C(=O)N[C@@H](C)C(=O)N[C@@H](CCC(N)=O)C(=O)N[C@@H](CC(=O)O)C(=O)N[C@@H](Cc1ccccc1)C(=O)N[C@H](C(=O)N[C@@H](CCC(N)=O)C(=O)N[C@@H](Cc1c[nH]c2ccccc12)C(=O)N[C@@H](CC(C)C)C(=O)N[C@@H](CCSC)C(=O)N[C@@H](CC(N)=O)C(=O)N[C@H](C(N)=O)[C@@H](C)O)C(C)C [AIB2, AIB16, K10(C18) Gluc Amide] |
